According to ChEMBL document CHEMBL2346657, “Synthesis of novel 2-amino-4-(5'-substituted 2'-phenyl-1H-indol-3'-yl)-6-aryl-4H-pyran-3-carbonitrile derivatives as antimicrobial and antioxidant agents” (2013):
Active and inactive are the calls of the source. The rule behind the calls is not given here.

Key:
Format in all cases: functional
Pseudomonas aeruginosa [1] = assay: Antimicrobial activity against Pseudomonas aeruginosa MTCC 1688 at 750 ug/ml after 24 hrs by cup plate method; conditions: MTCC 1688, 24 h, read-out: IZ
Klebsiella pneumoniae [2] = assay: Antimicrobial activity against Klebsiella pneumoniae NCTC 13368 at 500 ug/ml after 24 hrs by cup plate method; conditions: NCTC 13368, 24 h, read-out: IZ
Escherichia coli [3] = assay: Antimicrobial activity against Escherichia coli MTCC 723 at 1000 ug/ml after 24 hrs by cup plate method; conditions: MTCC 723, 24 h, read-out: IZ
[4] = Antioxidant activity assessed as metal chelating activity by measuring inhibition of ferrozine-Fe2+ complex formation at 25 to 100 ug/ml
Klebsiella pneumoniae [5] = assay: Antimicrobial activity against Klebsiella pneumoniae NCTC 13368 at 1000 ug/ml after 24 hrs by cup plate method; conditions: NCTC 13368, 24 h, read-out: IZ
Aspergillus flavus [6] = assay: Antimicrobial activity against Aspergillus flavus MTCC 1973 at 500 ug/ml after 72 hrs by cup plate method; conditions: MTCC 1973, 72 h, read-out: IZ
Staphylococcus aureus [7] = assay: Antimicrobial activity against Staphylococcus aureus ATCC 29513 at 750 ug/ml after 24 hrs by cup plate method; conditions: ATCC 29513, 24 h, read-out: IZ
Aspergillus flavus [8] = assay: Antimicrobial activity against Aspergillus flavus MTCC 1973 at 750 ug/ml after 72 hrs by cup plate method; conditions: MTCC 1973, 72 h, read-out: IZ
Aspergillus oryzae [9] = assay: Antimicrobial activity against Aspergillus oryzae MTCC 3567 at 500 ug/ml after 72 hrs by cup plate method; conditions: MTCC 3567, 72 h, read-out: IZ
Pseudomonas aeruginosa [10] = assay: Antimicrobial activity against Pseudomonas aeruginosa MTCC 1688 at 500 ug/ml after 24 hrs by cup plate method; conditions: MTCC 1688, 24 h, read-out: IZ
Escherichia coli [11] = assay: Antimicrobial activity against Escherichia coli MTCC 723 at 750 ug/ml after 24 hrs by cup plate method; conditions: MTCC 723, 24 h, read-out: IZ
Aspergillus oryzae [12] = assay: Antimicrobial activity against Aspergillus oryzae MTCC 3567 at 750 ug/ml after 72 hrs by cup plate method; conditions: MTCC 3567, 72 h, read-out: IZ
Aspergillus flavus [13] = assay: Antimicrobial activity against Aspergillus flavus MTCC 1973 at 1000 ug/ml after 72 hrs by cup plate method; conditions: MTCC 1973, 72 h, read-out: IZ
Staphylococcus aureus [14] = assay: Antimicrobial activity against Staphylococcus aureus ATCC 29513 at 1000 ug/ml after 24 hrs by cup plate method; conditions: ATCC 29513, 24 h, read-out: IZ
Aspergillus niger [15] = assay: Antimicrobial activity against Aspergillus niger MTCC 281 at 750 ug/ml after 72 hrs by cup plate method; conditions: MTCC 281, 72 h, read-out: IZ
Aspergillus terreus [16] = assay: Antimicrobial activity against Aspergillus terreus MTCC 1782 at 500 ug/ml after 72 hrs by cup plate method; conditions: MTCC 1782, 72 h, read-out: IZ
Klebsiella pneumoniae [17] = assay: Antimicrobial activity against Klebsiella pneumoniae NCTC 13368 at 750 ug/ml after 24 hrs by cup plate method; conditions: NCTC 13368, 24 h, read-out: IZ
Pseudomonas aeruginosa [18] = assay: Antimicrobial activity against Pseudomonas aeruginosa MTCC 1688 at 1000 ug/ml after 24 hrs by cup plate method; conditions: MTCC 1688, 24 h, read-out: IZ
Aspergillus niger [19] = assay: Antimicrobial activity against Aspergillus niger MTCC 281 at 500 ug/ml after 72 hrs by cup plate method; conditions: MTCC 281, 72 h, read-out: IZ
Aspergillus oryzae [20] = assay: Antimicrobial activity against Aspergillus oryzae MTCC 3567 at 1000 ug/ml after 72 hrs by cup plate method; conditions: MTCC 3567, 72 h, read-out: IZ
Aspergillus niger [21] = assay: Antimicrobial activity against Aspergillus niger MTCC 281 at 1000 ug/ml after 72 hrs by cup plate method; conditions: MTCC 281, 72 h, read-out: IZ
Escherichia coli [22] = assay: Antimicrobial activity against Escherichia coli MTCC 723 at 500 ug/ml after 24 hrs by cup plate method; conditions: MTCC 723, 24 h, read-out: IZ
Staphylococcus aureus [23] = assay: Antimicrobial activity against Staphylococcus aureus ATCC 29513 at 500 ug/ml after 24 hrs by cup plate method; conditions: ATCC 29513, 24 h, read-out: IZ
Aspergillus terreus [24] = assay: Antimicrobial activity against Aspergillus terreus MTCC 1782 at 1000 ug/ml after 72 hrs by cup plate method; conditions: MTCC 1782, 72 h, read-out: IZ
Aspergillus terreus [25] = assay: Antimicrobial activity against Aspergillus terreus MTCC 1782 at 750 ug/ml after 72 hrs by cup plate method; conditions: MTCC 1782, 72 h, read-out: IZ

SMILES	zone of inhibition at 750 µg/mL (Pseudomonas aeruginosa [1])	zone of inhibition at 500 µg/mL (Klebsiella pneumoniae [2])	zone of inhibition at 1000 µg/mL (Escherichia coli [3])	Activity [4]	zone of inhibition at 1000 µg/mL (Klebsiella pneumoniae [5])	zone of inhibition at 500 µg/mL (Aspergillus flavus [6])	zone of inhibition at 750 µg/mL (Staphylococcus aureus [7])	zone of inhibition at 750 µg/mL (Aspergillus flavus [8])	zone of inhibition at 500 µg/mL (Aspergillus oryzae [9])	zone of inhibition at 500 µg/mL (Pseudomonas aeruginosa [10])	zone of inhibition at 750 µg/mL (Escherichia coli [11])	zone of inhibition at 750 µg/mL (Aspergillus oryzae [12])	zone of inhibition at 1000 µg/mL (Aspergillus flavus [13])	zone of inhibition at 1000 µg/mL (Staphylococcus aureus [14])	zone of inhibition at 750 µg/mL (Aspergillus niger [15])	zone of inhibition at 500 µg/mL (Aspergillus terreus [16])	zone of inhibition at 750 µg/mL (Klebsiella pneumoniae [17])	zone of inhibition at 1000 µg/mL (Pseudomonas aeruginosa [18])	zone of inhibition at 500 µg/mL (Aspergillus niger [19])	zone of inhibition at 1000 µg/mL (Aspergillus oryzae [20])	other results
Cc1ccc(C2=CC(c3c(-c4ccccc4)[nH]c4ccccc34)c3c(N)n[nH]c3O2)cc1 (stereo not given)	6 mm	4 mm	8 mm	Active	2 mm	3 mm	3 mm	2 mm	7 mm	8 mm	8 mm	7 mm	8 mm	3 mm	9 mm	4 mm	3 mm	6 mm	9 mm	7 mm	zone of inhibition at 1000 µg/mL (Aspergillus niger [21]): 5 mm; zone of inhibition at 500 µg/mL (Escherichia coli [22]): 8 mm; zone of inhibition at 500 µg/mL (Staphylococcus aureus [23]): 5 mm; zone of inhibition at 1000 µg/mL (Aspergillus terreus [24]): 4 mm; zone of inhibition at 750 µg/mL (Aspergillus terreus [25]): 4 mm
Cc1ccc(C2=CC(c3c(-c4ccccc4)[nH]c4ccc(Cl)cc34)C(C#N)=C(N)O2)cc1 (stereo not given)	6 mm	10 mm	10 mm	Active	10 mm	5 mm	5 mm	5 mm	8 mm	6 mm	10 mm	8 mm	5 mm	6 mm	3 mm	5 mm	10 mm	3 mm	4 mm	2 mm	zone of inhibition at 1000 µg/mL (Aspergillus niger [21]): 3 mm; zone of inhibition at 500 µg/mL (Escherichia coli [22]): 10 mm; zone of inhibition at 500 µg/mL (Staphylococcus aureus [23]): 8 mm; zone of inhibition at 1000 µg/mL (Aspergillus terreus [24]): 3 mm; zone of inhibition at 750 µg/mL (Aspergillus terreus [25]): 3 mm
Nc1nc(=O)[nH]c2c1C(c1c(-c3ccccc3)[nH]c3ccc(Cl)cc13)C=C(c1ccccc1)O2 (stereo not given)	8 mm	11 mm	10 mm	Active	10 mm	10 mm	3 mm	10 mm	12 mm	9 mm	10 mm	12 mm	9 mm	3 mm	10 mm	3 mm	10 mm	5 mm	10 mm	12 mm	zone of inhibition at 1000 µg/mL (Aspergillus niger [21]): 8 mm; zone of inhibition at 500 µg/mL (Escherichia coli [22]): 10 mm; zone of inhibition at 500 µg/mL (Staphylococcus aureus [23]): 3 mm; zone of inhibition at 1000 µg/mL (Aspergillus terreus [24]): 3 mm; zone of inhibition at 750 µg/mL (Aspergillus terreus [25]): 3 mm
Nc1nc(=S)[nH]c2c1C(c1c(-c3ccccc3)[nH]c3ccc(Cl)cc13)C=C(c1ccccc1)O2 (stereo not given)	5 mm	10 mm	8 mm	Active	10 mm	8 mm	9 mm	8 mm	10 mm	6 mm	8 mm	10 mm	8 mm	9 mm	5 mm	9 mm	10 mm	5 mm	5 mm	0 mm	zone of inhibition at 1000 µg/mL (Aspergillus niger [21]): 10 mm; zone of inhibition at 500 µg/mL (Escherichia coli [22]): 10 mm; zone of inhibition at 500 µg/mL (Staphylococcus aureus [23]): 9 mm; zone of inhibition at 1000 µg/mL (Aspergillus terreus [24]): 8 mm; zone of inhibition at 750 µg/mL (Aspergillus terreus [25]): 8 mm
Cc1ccc2[nH]c(-c3ccccc3)c(C3C=C(c4ccccc4)OC(N)=C3C#N)c2c1 (stereo not given)	5 mm	4 mm	5 mm	Active	4 mm	2 mm	5 mm	2 mm	8 mm	6 mm	6 mm	4 mm	4 mm	5 mm	10 mm	6 mm	4 mm	5 mm	9 mm	3 mm	zone of inhibition at 1000 µg/mL (Aspergillus niger [21]): 10 mm; zone of inhibition at 500 µg/mL (Escherichia coli [22]): 6 mm; zone of inhibition at 500 µg/mL (Staphylococcus aureus [23]): 5 mm; zone of inhibition at 1000 µg/mL (Aspergillus terreus [24]): 5 mm; zone of inhibition at 750 µg/mL (Aspergillus terreus [25]): 5 mm
Cc1ccc2[nH]c(-c3ccccc3)c(C3C=C(c4ccccc4)Oc4[nH]nc(N)c43)c2c1 (stereo not given)	8 mm	3 mm	3 mm	Active	3 mm	5 mm	5 mm	2 mm	9 mm	9 mm	3 mm	8 mm	1 mm	5 mm	5 mm	9 mm	3 mm	8 mm	5 mm	8 mm	zone of inhibition at 1000 µg/mL (Aspergillus niger [21]): 3 mm; zone of inhibition at 500 µg/mL (Escherichia coli [22]): 3 mm; zone of inhibition at 500 µg/mL (Staphylococcus aureus [23]): 6 mm; zone of inhibition at 1000 µg/mL (Aspergillus terreus [24]): 9 mm; zone of inhibition at 750 µg/mL (Aspergillus terreus [25]): 9 mm
Cc1ccc2[nH]c(-c3ccccc3)c(C3C=C(c4ccccc4)Oc4[nH]c(=S)nc(N)c43)c2c1 (stereo not given)	8 mm	5 mm	8 mm	Active	4 mm	9 mm	9 mm	6 mm	3 mm	9 mm	8 mm	3 mm	5 mm	9 mm	3 mm	9 mm	4 mm	8 mm	4 mm	3 mm	zone of inhibition at 1000 µg/mL (Aspergillus niger [21]): 8 mm; zone of inhibition at 500 µg/mL (Escherichia coli [22]): 8 mm; zone of inhibition at 500 µg/mL (Staphylococcus aureus [23]): 10 mm; zone of inhibition at 1000 µg/mL (Aspergillus terreus [24]): 8 mm; zone of inhibition at 750 µg/mL (Aspergillus terreus [25]): 8 mm
Cc1ccc(C2=CC(c3c(-c4ccccc4)[nH]c4ccc(C)cc34)c3c(N)nc(=O)[nH]c3O2)cc1 (stereo not given)	10 mm	10 mm	14 mm	Active	10 mm	2 mm	5 mm	2 mm	0 mm	10 mm	13 mm	0 mm	2 mm	2 mm	10 mm	9 mm	10 mm	10 mm	10 mm	0 mm	zone of inhibition at 1000 µg/mL (Aspergillus niger [21]): 10 mm; zone of inhibition at 500 µg/mL (Escherichia coli [22]): 13 mm; zone of inhibition at 500 µg/mL (Staphylococcus aureus [23]): 8 mm; zone of inhibition at 1000 µg/mL (Aspergillus terreus [24]): 9 mm; zone of inhibition at 750 µg/mL (Aspergillus terreus [25]): 9 mm
